{
  "source": "patent US10793625B2",
  "about": "“Compositions and methods for treating or preventing osteoarthritis” (THE JOHNS HOPKINS UNIVERSITY, priority 2012, dated 2020)",
  "key": {"[1]": {"test_system": "Dunkin Hartley guinea pig spontaneous osteoarthritis", "assay": "Dunkin Hartley guinea pig spontaneous osteoarthritis, MRI of knee joints", "format": "in vivo", "settings": "injected for 3 months", "text": "(FIG. 16A) MRI scanning of knee joints of the guinea pig with different dose of TβRI inhibitor or vehicle treatment for 3 months. Red arrows pointing the bone marrow lesions in the subchondral bone of distal femur (upper row) or tibiae plateau (lower row). (FIG. 16B) Quantitative analysis of the bone marrow lesion intensity."}, "[2]": {"test_system": "Nestin-Cre™ER::Rosa26-LacZ^fl/fl mice", "assay": "β-gal and osteocalcin co-staining in subchondral bone of Nestin-CreER::Rosa26-LacZfl/fl ACLT mice", "format": "in vivo, mouse", "text": "We purchased Nestin-Cre™ER and (ROSA)26Sortm1Sor/J mice from the Jackson Laboratory. Floxed type II TGF-β receptor (TβRII^fl/fl) mice were obtained from Dr. Moses' lab. Nestin-Cre™ER mice were crossed with TβRII^fl/fl mice. The offspring were intercrossed to generate the following offspring: nestin-Cre™ER::TβRII^fl/fl, in which Cre was fused with a mutated estrogen receptor that could be activated by Tamoxifen. We determined the genotype of transgenic mice by PCR analyses of genomic DNA isolated from mouse tails. Genotyping for the Cre transgene was performed by PCR with the primers Cre 5′ (5′-CAAATAGCCCTGGCAGAT-3′) and Cre 3′ (5′-[…]-3′). The loxP TβRII allele was identified with the primerslox1F (5′-[…]-3′) and lox1R (5′-[…]-3′). We generated Nestin-Cre™ER::Rosa26-LacZ^fl/fl mice by crossing nestin-Cre™ER mice with mice homozygous with a loxP-flanked DNA STOP sequence preventing expression of the downstream lacZ gene. The offspring were then intercrossed to generate the following genotype: Nestin-Cre™ER::Rosa26-LacZ^fl/fl. We performed sham or ACLT operations on two month-old, male WT, Nestin-Cre™ER::TβRII^fl/fl and Nestin-Cre™ER::Rosa26-lacZ^fl/fl male mice. […]\nHistochemistry, Immunohistochemistry and Histomorphometry. […] We calculated OARSI scores as previously described."}, "active TGF-β1": {"test_system": "active TGF-β1", "settings": "injection; cited from earlier work"}, "9-month-old ACLT mice": {"test_system": "9-month-old ACLT mice", "assay": "ACLT or sham surgery in 9 month old mice treated with TβRI inhibitor", "format": "in vivo, mouse", "settings": "for articular cartilage degeneration / subchondral bone structure / architecture: 1 mg/kg daily for 1 month", "protocol": "(FIG. 12A) Safranin O staining of tibia articular cartilage and subchondral bone of mice sacrificed at 0, 14, 30, and 60 days post sham or ACLT surgery and treated with either vehicle or TβRI inhibitor (SB505124-1 mg/kg) daily beginning 3 days post-surgery for 1 month. For those mice analyzed at earlier time points, the mice were treated until sacrificed. (FIG. 12B) 3D μCT images of subchondral bone of knee joints. The sham operated mice maintained articular cartilage and subchondral bone structure throughout the duration of the experiment. […] (FIG. 12C) OARSI score based on the histology analysis. Quantitative analysis of structural parameters by μCT analysis: (FIG. 12D) thickness of subchondral bone plate (SBP) and (FIG. 12E) trabecular pattern factor (Tb. Pf). […] Ve-Sham: vehicle treated in sham operated; In-Sham: TβRI inhibitor treat in sham operated; Ve-ACLT: vehicle treated in ACLT operated; In-ACLT: TβRI inhibitor treated in ACLT operated mice.\nHistochemistry, Immunohistochemistry and Histomorphometry. […] Immunostaining was performed using standard protocol. […] We calculated OARSI scores as previously described.\nMicro-Computed Tomography (μCT). […] Th: trabecular thickness, Tb. Sp: trabecular separation, SMI, Conn. Dn: connectivity density, and Tb.Pf: trabecular pattern factor."}, "MSCs": {"test_system": "MSCs", "assay": "Western blot of Smad phosphorylation in cultured MSCs treated with recombinant hTGF-β1", "format": "cell-based, mouse", "protocol": "Cell Culture. We obtained green fluorescent protein (GFP)-labeled mouse adult MSCs from the Texas A&M Health Science Center College of Medicine Institute (College Station). We maintained cells (Passage 3-5) Iscove's modified Dulbecco's medium (Invitrogen) supplemented with 10% fetal calf serum (Atlanta Biologicals), 10% horse serum (Thermo Scientific), and (% penicillin-streptomycin (Mediatech). We cultured MSCs in 6-well plates at a density of 1.8×10^5 cells per well, then starved them for 6 h followed by TGF-β1 (R&D Systems) and TβRI inhibitor (SB-505124) (Sigma-Aldrich) treatment as indicated.\nELISA and Western Blot, We determined the concentration of active TGF-β1 in the conditioned media by the ELISA Development kit (R&D Systems) according to the manufacturer's instructions. Western blot analyses were conducted on the protein of lysates from in vitro cultured MSCs. The cell lysates were centrifuged and the supernatants were separated by SDS-PAGE and blotted on polyvinylidene fluoride membrane (Bio-Rad Laboratories). Following incubation in specific antibodies, we detected proteins using an enhanced chemiluminescence kit (Amersham Biosciences). […]"}, "[3]": {"settings": "9 month old ACLT mice, listed as WI inhibitor, 1 mg/kg"}},
  "note": "Read-outs that look alike come from different tables or passages of the source.",
  "data": [
    {"compound": "Cc1cccc(-c2[nH]c(C(C)(C)C)nc2-c2ccc3c(c2)OCO3)n1", "note": "[TβRI inhibitor]", "values": [
      {"measurement": "subchondral bone marrow lesions in knee joints", "setting": "[1]", "value": "significantly reduced"},
      {"measurement": "distribution of β-gal+ MSC lineage cells in subchondral bone", "setting": "[2]", "value": "primarily distributed on bone surface"},
      {"measurement": "uncoupled bone formation induced by high concentrations of active TGF-β1", "setting": "active TGF-β1", "value": "rescue uncoupled bone formation"},
      {"measurement": "articular cartilage degeneration", "setting": "9-month-old ACLT mice; 9 month old ACLT mice, 1 mg/kg", "value": "attenuated the articular cartilage degeneration"},
      {"measurement": "subchondral bone structure / architecture", "setting": "9-month-old ACLT mice; 9 month old ACLT mice, 1 mg/kg", "value": "improved subchondral bone architecture"},
      {"measurement": "articular cartilage degeneration", "setting": "9-month-old ACLT mice; [3]", "value": "attenuated"},
      {"measurement": "subchondral bone structure / architecture", "setting": "9-month-old ACLT mice; [3]", "value": "improved"},
      {"measurement": "trabecular pattern factor (Tb. Pf), μCT", "setting": "9-month-old ACLT mice; 9 month old ACLT mice, 1 and 2 months post ACLT, relative to ACLT-Vehicle", "value": "decreased the trabecular pattern factor"},
      {"measurement": "thickness of subchondral bone plate (SBP), μCT", "setting": "9-month-old ACLT mice; 9 month old ACLT mice, 1 month post-surgery, compared to sham-operated controls", "value": "remained normal"},
      {"measurement": "effect on articular cartilage", "setting": "9-month-old ACLT mice; sham-operated 9 month old mice, 1 mg/kg", "value": "did not have significant effect on articular cartilage"},
      {"measurement": "subchondral bone tissue volume (TV), μCT", "setting": "ACLT mice; 1 mg kg^−1", "value": "normalization of subchondral bone TV"},
      {"measurement": "thickness of subchondral bone plate (SBP), μCT", "setting": "ACLT mice; 1 mg kg^−1", "value": "maintenance of the thickness of SBP"},
      {"measurement": "trabecular pattern factor (Tb. Pf), μCT", "setting": "ACLT mice; 1 mg kg^−1", "value": "decrease in Tb. Pf"},
      {"measurement": "degeneration of articular cartilage", "setting": "ACLT mice; 0.1 and 0.5 mg/kg, 2 months after ACLT", "value": "nor prevent the degeneration of articular cartilage"},
      {"measurement": "contrast signal in MRI perfusion analysis", "setting": "ACLT mice; 1 month post ACLT", "value": "the increase was prevented"},
      {"measurement": "expression of ALK5 in subchondral bone", "setting": "ACLT mice; 2 weeks post-surgery", "value": "the increase was inhibited"},
      {"measurement": "pSmad2/3+ cells in subchondral bone", "setting": "ACLT mice; 2 weeks post-surgery", "value": "the increase was prevented"},
      {"measurement": "expression level of ALK1 in subchondral bone", "setting": "ACLT mice; 2 weeks post-surgery, relative to sham", "value": "remained unchanged"},
      {"measurement": "number of pSmad1+ cells in subchondral bone", "setting": "ACLT mice; 2 weeks post-surgery, relative to sham controls", "value": "remained relatively stable"},
      {"measurement": "subchondral bone structure", "setting": "ACLT mice; 2.5 and 5 mg/kg daily i.p. for 30 days, ACLT mice", "value": "could rescue the bone structure"},
      {"measurement": "co-localization of osterix+ osteoprogenitors and TRAP+ osteoclasts", "setting": "ACLT mice; 14 and 30 days, immunostaining", "value": "co-localization of osterix and TRAP was seen"},
      {"measurement": "increase of nestin+ MSCs in subchondral bone marrow", "setting": "ACLT mice; 30 days post-surgery, immunostaining", "value": "prevented"},
      {"measurement": "CD31+ endothelial progenitors in subchondral bone", "setting": "ACLT mice; ACLT mice", "value": "reduced"},
      {"measurement": "bone volume/tissue volume (BV/TV), μCT", "setting": "ACLT mice; all doses, 30 and 60 days post ACLT", "value": "did not change BV/TV"},
      {"measurement": "subchondral bone tissue volume (TV), μCT", "setting": "ACLT mice; high doses 1, 2.5 and 5 mg/kg", "value": "inhibited the increase in TV"},
      {"measurement": "trabecular pattern factor (Tb. Pf), μCT", "setting": "ACLT mice; high doses 1, 2.5 and 5 mg/kg", "value": "decreased Tb. Pf"},
      {"measurement": "subchondral bone structure", "setting": "ACLT mice; higher concentrations, beginning at 1 mg kg^−1", "value": "improved subchondral bone structure"},
      {"measurement": "bone marrow lesion in tibial subchondral bone", "setting": "ACLT mice; micro-MRI, vs ACLT-vehicle treated mice", "value": "obviously smaller in size"},
      {"measurement": "increased number of osterix+ osteoprogenitor clusters in bone marrow", "setting": "ACLT mice; one month post ACLT, vs vehicle", "value": "attenuated"},
      {"measurement": "gait analysis: disparity of maximum contact time (Maxcontactat %) of the two hind limbs", "setting": "ACLT mice; two months post-surgery, Catwalk system", "value": "rescued"},
      {"measurement": "OARSI score of articular cartilage", "setting": "ACLT mice; vs vehicle treated ACLT mice", "value": "protective effect"}
    ]},
    {"compound": "TGF-β1: recombinant hTGF-β1 (R&D Systems) used to treat cultured MSCs", "values": [
      {"measurement": "dose giving maximal increase of phosphorylated Smad1/5/8", "setting": "MSCs", "value": 5, "unit": "ng/mL"},
      {"measurement": "phosphorylation of Smad2/3 and Smad1/5/8", "setting": "MSCs; low concentrations", "value": "stimulated phosphorylation"}
    ]}
  ]
}
